For orientation: Dmax means the largest share of the target that was removed. Broadly, the DC50 is the concentration at which degradation of the target reaches its halfway point. What is called pEC50 is the negative decadic logarithm of the EC50, by convention in mol/L. Read a high pEC50 as a small EC50.

pEC50: −log10 of the molar value. Like-named read-outs stand apart in the source and are kept apart here.

This is an account of results in patent US20250243180A1, “TARGETED PROTEIN DEGRADATION” (Monte Rosa Therapeutics AG, priority 2023, published 2025).

For one test, the target named is NEK7 (Homo sapiens (Human), UniProt Q8TDX7+Q96SW2). The test is described as follows: NEK7 NanoBiT degradation assay in Cal51 NEK7 NanoBiT cell line. As to conditions: Cal51 NEK7 NanoBiT cells, 24 hours; for Dmax: CAL-51. It counts as cell-based. The method, boiled down:
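EC50 comes from a 4-parameter fit of control-normalized luminescence. The luminescence reports HiBiT-NEK7 (endogenous knock-in) complemented by stably expressed LgBiT in Cal51 cells after 24 h compound exposure at 37 °C. Final concentrations ran 1 μM to 0.05 nM, with Endurazine substrate present in the medium throughout.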

Another test has as its target CRBN-DDB1 (Homo sapiens (Human), UniProt Q96SW2). The test is described as follows: Compound binding to CRBN by HTRF assay. Put shortly:
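Ki calculated via Cheng-Prusoff from geometric-mean EC50 values, after normalizing the HTRF ratio to lenalidomide (active) and DMSO (neutral) controls. Compounds (11 points, 1:3 steps) incubated 30 min at ambient temperature with CRBN-DDB1 2.5 nM, anti-His Tb cryptate and Cy5-thalidomide tracer 100 nM.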
(TR-FRET usually uses a lanthanide donor and a delayed reading to cut background.)

Setting [1] is: NEK7 degradation, read-out: NanoBiT Dmax.
[2] abbreviates: NEK7 degradation, read-out: NanoBiT DC50.

Chain of NEK7 (Q8TDX7 whole entry): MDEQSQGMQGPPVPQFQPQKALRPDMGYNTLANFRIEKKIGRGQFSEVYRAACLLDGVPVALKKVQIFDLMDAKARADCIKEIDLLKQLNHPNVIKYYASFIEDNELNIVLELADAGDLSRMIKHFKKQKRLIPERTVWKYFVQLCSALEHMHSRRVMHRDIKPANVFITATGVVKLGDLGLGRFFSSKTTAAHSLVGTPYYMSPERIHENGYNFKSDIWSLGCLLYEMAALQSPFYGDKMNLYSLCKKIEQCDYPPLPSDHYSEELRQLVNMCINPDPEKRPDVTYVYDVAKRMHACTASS
Chain of NEK7 (Q96SW2 whole entry): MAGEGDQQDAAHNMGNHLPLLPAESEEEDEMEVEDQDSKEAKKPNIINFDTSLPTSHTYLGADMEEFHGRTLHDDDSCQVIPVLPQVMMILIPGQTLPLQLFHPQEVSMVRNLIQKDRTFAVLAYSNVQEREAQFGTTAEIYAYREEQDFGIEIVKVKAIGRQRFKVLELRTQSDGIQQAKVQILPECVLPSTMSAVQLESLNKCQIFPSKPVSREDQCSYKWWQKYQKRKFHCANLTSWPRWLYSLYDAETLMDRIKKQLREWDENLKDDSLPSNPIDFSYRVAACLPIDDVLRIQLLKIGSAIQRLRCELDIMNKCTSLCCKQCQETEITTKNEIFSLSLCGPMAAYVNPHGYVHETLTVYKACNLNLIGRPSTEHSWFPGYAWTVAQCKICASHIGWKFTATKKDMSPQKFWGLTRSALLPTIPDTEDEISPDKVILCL
Chain of NEK7 (Q16531 2-1140 partner): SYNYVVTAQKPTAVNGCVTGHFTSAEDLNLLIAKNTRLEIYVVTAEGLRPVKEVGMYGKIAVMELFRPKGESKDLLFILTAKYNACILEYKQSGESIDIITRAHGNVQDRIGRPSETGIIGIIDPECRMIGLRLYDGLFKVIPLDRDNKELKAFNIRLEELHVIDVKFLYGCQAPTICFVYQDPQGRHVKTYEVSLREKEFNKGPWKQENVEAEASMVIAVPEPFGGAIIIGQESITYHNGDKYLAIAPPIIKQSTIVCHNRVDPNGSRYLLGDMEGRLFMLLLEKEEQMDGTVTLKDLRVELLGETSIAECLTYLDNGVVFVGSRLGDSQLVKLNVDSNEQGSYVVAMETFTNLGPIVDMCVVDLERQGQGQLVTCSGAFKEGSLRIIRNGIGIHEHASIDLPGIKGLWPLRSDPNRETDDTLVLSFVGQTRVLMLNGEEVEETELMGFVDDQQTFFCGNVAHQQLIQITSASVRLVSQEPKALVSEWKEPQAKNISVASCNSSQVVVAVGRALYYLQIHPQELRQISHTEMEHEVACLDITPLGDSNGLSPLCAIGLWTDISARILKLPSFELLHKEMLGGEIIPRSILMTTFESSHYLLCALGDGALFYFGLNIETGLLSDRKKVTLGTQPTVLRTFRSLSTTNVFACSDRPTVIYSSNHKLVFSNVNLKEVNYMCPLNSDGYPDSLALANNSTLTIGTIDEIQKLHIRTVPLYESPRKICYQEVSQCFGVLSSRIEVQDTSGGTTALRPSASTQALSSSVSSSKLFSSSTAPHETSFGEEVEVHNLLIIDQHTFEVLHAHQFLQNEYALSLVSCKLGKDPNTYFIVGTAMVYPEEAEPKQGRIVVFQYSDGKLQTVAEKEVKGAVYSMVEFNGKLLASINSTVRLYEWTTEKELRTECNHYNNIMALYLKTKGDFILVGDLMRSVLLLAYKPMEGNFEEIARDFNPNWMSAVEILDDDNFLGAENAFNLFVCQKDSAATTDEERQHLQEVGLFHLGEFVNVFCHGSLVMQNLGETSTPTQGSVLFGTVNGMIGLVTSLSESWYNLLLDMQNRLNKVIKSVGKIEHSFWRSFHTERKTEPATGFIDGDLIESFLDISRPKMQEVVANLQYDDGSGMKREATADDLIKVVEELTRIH
Chain of CRBN-DDB1 (Q96SW2 whole entry): as the sequence (Q96SW2 whole entry) above
Chain of CRBN-DDB1 (Q16531 whole entry partner): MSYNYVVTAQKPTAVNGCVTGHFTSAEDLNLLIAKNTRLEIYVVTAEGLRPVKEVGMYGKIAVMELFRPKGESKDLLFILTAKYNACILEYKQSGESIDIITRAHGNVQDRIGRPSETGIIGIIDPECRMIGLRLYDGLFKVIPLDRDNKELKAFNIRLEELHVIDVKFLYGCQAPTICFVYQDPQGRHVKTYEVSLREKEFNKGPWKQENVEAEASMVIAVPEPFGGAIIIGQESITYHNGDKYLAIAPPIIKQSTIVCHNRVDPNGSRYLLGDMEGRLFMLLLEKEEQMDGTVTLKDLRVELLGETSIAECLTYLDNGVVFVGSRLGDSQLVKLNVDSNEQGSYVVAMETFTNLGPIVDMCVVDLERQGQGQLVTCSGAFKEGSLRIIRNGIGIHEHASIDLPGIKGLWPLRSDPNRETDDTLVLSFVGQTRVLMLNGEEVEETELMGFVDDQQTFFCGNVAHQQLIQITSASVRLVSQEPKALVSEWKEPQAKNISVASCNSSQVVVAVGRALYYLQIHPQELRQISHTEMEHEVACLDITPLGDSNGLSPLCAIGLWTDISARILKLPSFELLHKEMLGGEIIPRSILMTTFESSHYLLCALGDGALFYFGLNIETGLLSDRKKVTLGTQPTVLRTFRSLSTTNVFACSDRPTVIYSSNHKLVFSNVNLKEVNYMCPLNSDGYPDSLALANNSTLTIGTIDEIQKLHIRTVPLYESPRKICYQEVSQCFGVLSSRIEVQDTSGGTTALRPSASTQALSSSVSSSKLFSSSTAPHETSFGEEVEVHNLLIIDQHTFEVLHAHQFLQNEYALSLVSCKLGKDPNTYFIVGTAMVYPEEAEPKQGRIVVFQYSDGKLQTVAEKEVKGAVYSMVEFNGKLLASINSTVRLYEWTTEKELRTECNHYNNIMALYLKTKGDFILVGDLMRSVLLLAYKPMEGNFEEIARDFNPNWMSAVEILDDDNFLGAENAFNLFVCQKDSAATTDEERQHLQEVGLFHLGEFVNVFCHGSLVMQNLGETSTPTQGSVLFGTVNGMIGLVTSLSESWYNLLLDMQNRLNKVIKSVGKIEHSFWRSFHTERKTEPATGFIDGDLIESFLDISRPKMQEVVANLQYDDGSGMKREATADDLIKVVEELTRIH

As for `Cc1noc(C(C)(C)C(=O)NCc2cc(Cl)c(C3CCC(=O)NC3=O)c(Cl)c2)n1` (stereo not drawn) [Compound 164], the Dmax was 68% at NEK7 (read-out: NEK7 NanoBiT Dmax) and 50 to 75% on NEK7 (setting [1]). The figures for the DC50 at NEK7 (read-out: NEK7 NanoBiT DC50) and at NEK7 (setting [2]) were 66 nM and ≤ 100 nM, respectively. Also, the pEC50 on CRBN-DDB1 is 6.62; at CRBN-DDB1 (HTRF class, Cereblon binding) it was 6.00 to 7.00.
As for `CC(C)(C(=O)NCc1cc(Cl)c(C2CCC(=O)NC2=O)c(Cl)c1)c1ncc(N2CCC2)cn1` (stereo not drawn) [Compound 165], the figures for the Dmax on NEK7 (read-out: NEK7 NanoBiT Dmax) and on NEK7 (setting [1]) were 69% and 50 to 75%, respectively. For the same compound, the DC50 at NEK7 (read-out: NEK7 NanoBiT DC50) is 47 nM; at NEK7 (setting [2]), ≤ 100 nM. Besides, the pEC50 at CRBN-DDB1 was 6.77; on CRBN-DDB1 (HTRF class, Cereblon binding), 6.00 to 7.00.
Take `CC(C)(C(=O)NCc1cc(Cl)c(C2CCC(=O)NC2=O)c(Cl)c1)N1CCc2ccccc21` (stereo not drawn) [Compound 166, N-(3,5-dichloro-4-(2,6-dioxopiperidin-3-yl)benzyl)-2-(indolin-1-yl)-2-methylpropanamide]: the Dmax at NEK7 (read-out: NEK7 NanoBiT Dmax) was 56%; at NEK7 (setting [1]) it was 50 to 75%. In addition, the DC50 was 203 nM on NEK7 (read-out: NEK7 NanoBiT DC50) and 100 to 1000 nM at NEK7 (setting [2]). Besides, the pEC50 at CRBN-DDB1 is 7.05; at CRBN-DDB1 (HTRF class, Cereblon binding) it was ≥ 7.00.
Turning to `CC(C)(C(=O)NCc1cc(Cl)c(C2CCC(=O)NC2=O)c(Cl)c1)c1nc2ccccc2o1` (stereo not drawn) [Compound 167], the Dmax is 96% on NEK7 (read-out: NEK7 NanoBiT Dmax) and > 75% on NEK7 (setting [1]). The DC50 is 1 nM at NEK7 (read-out: NEK7 NanoBiT DC50) and ≤ 100 nM at NEK7 (setting [2]). In addition, the pEC50 was 7.05 at CRBN-DDB1 and ≥ 7.00 at CRBN-DDB1 (HTRF class, Cereblon binding).
Turning to `CC(C)(C(=O)NCc1cc(Cl)c(C2CCC(=O)NC2=O)c(Cl)c1)c1nccc(C2CC2)n1` (stereo not drawn) [Compound 168], the Dmax on NEK7 (read-out: NEK7 NanoBiT Dmax) is 57%; on NEK7 (setting [1]), 50 to 75%. Besides, the DC50 is 137 nM at NEK7 (read-out: NEK7 NanoBiT DC50) and 100 to 1000 nM at NEK7 (setting [2]). For the same compound, the pEC50 at CRBN-DDB1 was 6.82; at CRBN-DDB1 (HTRF class, Cereblon binding), 6.00 to 7.00.
With `O=C1CCC(c2c(Cl)cc(CNC(=O)C3(c4ncccn4)CCC3)cc2Cl)C(=O)N1` (stereo not drawn) [Compound 169, N-(3,5-dichloro-4-(2,6-dioxopiperidin-3-yl)benzyl)-1-(pyrimidin-2-yl)cyclobutane-1-carboxamide], the Dmax at NEK7 (read-out: NEK7 NanoBiT Dmax) is 75%; at NEK7 (setting [1]), 50 to 75%. For the same compound, the results for the DC50 on NEK7 (read-out: NEK7 NanoBiT DC50) and on NEK7 (setting [2]) were 42 nM and ≤ 100 nM, respectively. Moreover, the pEC50 on CRBN-DDB1 was 6.74; at CRBN-DDB1 (HTRF class, Cereblon binding) it was 6.00 to 7.00.
As for `CC(C)(C(=O)NCc1cc(Cl)c(C2CCC(=O)NC2=O)c(Cl)c1)N1Cc2ccccc2C1` (stereo not drawn) [Compound 170, N-(3,5-dichloro-4-(2,6-dioxopiperidin-3-yl)benzyl)-2-(isoindolin-2-yl)-2-methylpropanamide], the Dmax is 73% on NEK7 (read-out: NEK7 NanoBiT Dmax) and 50 to 75% at NEK7 (setting [1]). Besides, the DC50 on NEK7 (read-out: NEK7 NanoBiT DC50) was 55 nM; at NEK7 (setting [2]), ≤ 100 nM. In addition, the pEC50 on CRBN-DDB1 was 6.74; at CRBN-DDB1 (HTRF class, Cereblon binding), 6.00 to 7.00.
In the case of `CC(C)(C(=O)NCc1cc(Cl)c(C2CCC(=O)NC2=O)c(Cl)c1)c1cccc2ocnc12` (stereo not drawn) [Compound 171], the Dmax at NEK7 (read-out: NEK7 NanoBiT Dmax) was 90%; at NEK7 (setting [1]), > 75%. Besides, the figures for the DC50 at NEK7 (read-out: NEK7 NanoBiT DC50) and on NEK7 (setting [2]) were 7 nM and ≤ 100 nM, respectively. The pEC50 at CRBN-DDB1 is 6.92; at CRBN-DDB1 (HTRF class, Cereblon binding), 6.00 to 7.00.
In the case of `Cn1c(F)cc(C(C)(C)C(=O)NCc2cc(Cl)c(C3CCC(=O)NC3=O)c(Cl)c2)cc1=O` (stereo not drawn) [Compound 172], the Dmax on NEK7 (read-out: NEK7 NanoBiT Dmax) is 97%; at NEK7 (setting [1]), > 75%. Further, the DC50 at NEK7 (read-out: NEK7 NanoBiT DC50) was 2 nM; on NEK7 (setting [2]), ≤ 100 nM. For the same compound, the pEC50 on CRBN-DDB1 is 6.72; on CRBN-DDB1 (HTRF class, Cereblon binding), 6.00 to 7.00.
As for `Cc1cc(C(C)(C)C(=O)NCc2cc(Cl)c(C3CCC(=O)NC3=O)c(Cl)c2)ncn1` (stereo not drawn) [Compound 173], the Dmax is 85% at NEK7 (read-out: NEK7 NanoBiT Dmax) and > 75% at NEK7 (setting [1]). Also, the DC50 at NEK7 (read-out: NEK7 NanoBiT DC50) was 19 nM; at NEK7 (setting [2]), ≤ 100 nM. Besides, the pEC50 at CRBN-DDB1 was 6.64; on CRBN-DDB1 (HTRF class, Cereblon binding), 6.00 to 7.00.
As for `CC(C)(C(=O)NCc1cc(Cl)c(C2CCC(=O)NC2=O)c(Cl)c1)c1nccc(C(F)(F)F)n1` (stereo not drawn) [Compound 174], the maximal degradation (Dmax) on NEK7 (read-out: NEK7 NanoBiT Dmax) is 77%; at NEK7 (setting [1]), > 75%. The DC50 at NEK7 (read-out: NEK7 NanoBiT DC50) was 30 nM; at NEK7 (setting [2]), ≤ 100 nM. Further, the pEC50 on CRBN-DDB1 was 6.74; at CRBN-DDB1 (HTRF class, Cereblon binding) it was 6.00 to 7.00.
Take `CC(C)(C(=O)NCc1cc(Cl)c(C2CCC(=O)NC2=O)c(Cl)c1)c1ncc(C(F)(F)F)cn1` (stereo not drawn) [Compound 175]: the values for the Dmax on NEK7 (read-out: NEK7 NanoBiT Dmax) and at NEK7 (setting [1]) were 94% and > 75%, respectively. Also, the DC50 at NEK7 (read-out: NEK7 NanoBiT DC50) was 6 nM; at NEK7 (setting [2]), ≤ 100 nM. For the same compound, the pEC50 is 6.55 on CRBN-DDB1 and 6.00 to 7.00 at CRBN-DDB1 (HTRF class, Cereblon binding).
With `Cc1cncc(C(C)(C)C(=O)NCc2cc(Cl)c(C3CCC(=O)NC3=O)c(Cl)c2)n1` (stereo not drawn) [Compound 176], the Dmax at NEK7 (read-out: NEK7 NanoBiT Dmax) was 60%; on NEK7 (setting [1]), 50 to 75%. Further, the DC50 is 116 nM on NEK7 (read-out: NEK7 NanoBiT DC50) and 100 to 1000 nM at NEK7 (setting [2]). Moreover, the pEC50 on CRBN-DDB1 is 7.30; at CRBN-DDB1 (HTRF class, Cereblon binding), ≥ 7.00.
